Results from patent publication US20070004653A1, “Stable lyophilized anthracycline glycosides” (priority 2005, published 2007).
Read-outs that look alike come from different tables or passages of the source. One block for each compound: values may come before it.

Columns and labels:
[1] = cited from earlier work
[2] = Purification of Epirubicin HCl: solution warmed to 60° C., dimer and aglycone; type: physicochemical; conditions: for dimer content / epirubicin aglycone: cooled to 50-60° C.
Protocol: Epirubicin hydrochloride (1550 mg) (containing epirubicin aglycone 0.04% and dimer 0.8%) was dissolved in water (100 ml) and the pH was corrected to 3.2-3.8 with hydrochloric acid at room temperature. The solution was then warmed in about ½ hour to 60° C.-65° C. and then maintained at tis temperature for 1 hour and then the solution was cooled to 50-60° C. At the same time, the pH was corrected to 4.5-5.0 with sodium hydroxide (at this point epirubicin aglycone was about 0,10% and dimer content<0,10%). Then the solution was quickly transferred to a cold container.
Epirubicin hydrochloride (1550 mg) (containing epirubicin aglycone 0.04% and dimer 0.8%) was dissolved in water (100 ml) and the pH corrected to 3.2-3.8 with hydrochloric acid at room temperature (by means of 30 microliters of a 1 M aqueous solution). The solution was quickly warmed (in less than ½ hour) to 60° C.-65° C. and then maintained at this temperature for 45 minutes and then the solution was cooled to 50-60° C. At the same time, the pH was corrected to 4.5-5.0 with AMBERLITE® IRA-67 free base (0,18 ml of resin 1,6M) (at this point epirubicin aglycone was about 0,09% and dimer content<0,10%). Then the solution was quickly filtered and then transferred into a cold container.

[3] = Preparation of stable lyophilized anthracycline glycoside hydrochlorides: aglycone and dimer in the lyophilized product; type: physicochemical
Protocol: (§1) Idarubicin hydrochloride (500 mg) was dissolved in water (50 ml) and acetic acid and ammonium acetate (both 1.5% molar amount with respect to the molar amount of idarubicin hydrochloride) were added. The solution was frozen and lyophilized.
as §1, with “Charcoal was then added (100 g) and the solution was stirred for two hours. After that, the suspension was filtered through 0.4 micron membrane and then the” for “The”
Doxorubicin hydrochloride (500 mg) was dissolved in water (20 ml) and the pH corrected to 3.5 with acetic acid at room temperature. The solution was then warmed to 60° C. for 2 hours and then ammonium acetate (1.5% molar amount with respect to the molar amount of doxorubicin hydrochloride) was added. Then the solution was quickly frozen and lyophilized.
(§2) Epirubicin hydrochloride (1550 mg) was dissolved in water (100 ml) and the pH corrected to 3.2-3.8 with hydrochloric acid at room temperature. The solution was then warmed to 60° C.-65° C. for 1 hours and then the solution was cooled to 50-60° C. At the same time, the pH was corrected to 4.5-5.0 with sodium hydroxide. Then the solution was quickly frozen and lyophilized.
Idarubicin hydrochloride (5.0 g) was dissolved in water (500 ml). Then 58 microlitres of AMBERLITE® IRA-67 (1.6M) acetate (meaning 1.0% molar amount with respect to the molar amount of idarubicin hydrochloride) and 4.5 mg of acetic acid (meaning 0.8% molar amount with respect to the molar amount of idarubicin hydrochloride) were added. The suspension was slurried for two hours, then filtered, frozen and lyophilized.
Doxorubicin hydrochloride (5.0 g) was dissolved in water (200 ml) and the pH corrected to 4.6-4.8 with IN hydrochloric acid at room temperature. Then 80 microlitres of AMBERLITE® IRA-67 (1.6M) acetate (meaning 1.5% molar amount with respect to the molar amount of doxorubicin hydrochloride) was added. The solution was then filtered, frozen and lyophilized.
as §2, with “was” for “was then”, “hour” for “hours”, “AMBERLITE® IRA-67 free base.” for “sodium hydroxide.”, “filtered, frozen,” for “frozen”

[4] = cited from earlier work; remark: listed apart in the source
[5] = cited from earlier work; remark: listed apart in the source
[6] = Stability tests of Doxorubicin HCl solutions at room temperature (aglycone); type: physicochemical
Protocol: Doxorubicin hydrochloride (500 mg) was dissolved in 0.001 N hydrochloric acid (20 ml) at room temperature. The pH of this solution was 3.25.
Doxorubicin hydrochloride (500 mg) was dissolved in 0.1 N acetic acid (20 ml) at room temperature. The pH of this solution was 2.62. After 1 hour, ammonium acetate (4% molar amount with respect to the molar amount of the doxorubicin hydrochloride) was added to the solution and the solution kept at room temperature. The pH rose from 2.62 to 3.02. The results in table 46 show the stability data of this solution at room temperature.
Doxorubicin hydrochloride (500 mg) was dissolved in 0.05 M formic acid (20 ml) at room temperature. The pH of this solution was 2.52. After 1 hour, ammonium acetate (4% molar amount in respect of the molar amount of doxorubicin hydrochloride) was added and the solution kept at room temperature. The pH rose from 2.52 to 2.71.

[7] = Stability test of stabilized lyophilized Doxorubicin HCl (IRA-67 acetate resin); type: physicochemical
Protocol: Starting product was doxorubicin hydrochloride, 2.5% w/v in water. The pH of this solution was corrected to 4.6-4.8 with IN HCl. Then 1.5% molar amount of AMBERLITE® IRA-67 (1.6 M) acetate with respect to doxorubicin hydrochloride was added. After 2 hr of slurrying, the solution was filtered through a 0.4 micron membrane then it was, frozen and lyophilized.

[8] = Purification of Doxorubicin HCl: solution at pH 3.5 warmed to 60° C., aglycone; type: physicochemical
Protocol: Doxorubicin hydrochloride (500 mg) was dissolved in water (10 ml) at room temperature. A small amount of 0.1 N hydrochloric acid was added to lower the pH from 5.4 to 3.5. […]

[9] = Example 36: 1550 mg in water (100 ml), t = 0, pH 3.6, 20° C.
[10] = Example 36: after 1 hour at 60° C.-65° C., pH corrected to 4.5-5.0 with sodium hydroxide
[11] = Example 36: final, pH 4.8 (sodium hydroxide), 10° C.
[12] = Example 37: 1550 mg in water (100 ml), t = 0, pH 3.6, 20° C.
[13] = Example 37: Final, pH 4.7 (AMBERLITE IRA-67 free base), 10° C.
[14] = Example 37: after 45 minutes at 60° C.-65° C., pH corrected to 4.5-5.0 with AMBERLITE IRA-67 free base
[15] = starting Epirubicin hydrochloride (1550 mg) before dissolving
[16] = Example 41: pH 3.2-3.8, 60° C.-65° C. for 1 hour, pH 4.5-5.0 with sodium hydroxide, frozen and lyophilized
[17] = Example 44: pH 3.2-3.8, 60° C.-65° C. for 1 hour, pH 4.5-5.0 with AMBERLITE IRA-67 free base, filtered, frozen, lyophilized

Structure (SMILES): COc1cccc2c1C(=O)c1c(O)c3c(c(O)c1C2=O)C[C@@](O)(C(=O)CO)C[C@@H]3O[C@H]1C[C@@H](N)[C@@H](O)C(C)O1 (stereo partly shown) [Epirubicin]
solubility ([1]; in acetone, chloroform, and methylene chloride): practically insoluble | solubility ([1]; in water, methanol and ethyl alcohol, at a temperature of 50° C.): soluble

Structure (SMILES): COc1cccc2c1C(=O)c1c(O)c3c(c(O)c1C2=O)C[C@@](O)(C(=O)CO)C[C@@H]3O[C@H]1C[C@@H](N)[C@H](O)C(C)O1 (stereo partly shown) [Doxorubicin]
solubility ([1]; in acetone, benzene, chloroform and ethyl ether): practically insoluble | solubility ([1]; in water, methanol): soluble

% aglycone [2, 9]: 0.04% | % dimer content [2, 9]: 0.80% | % aglycone ([2]; Example 36: 15 min, 60° C.): 0.06% | % dimer content ([2]; Example 36: 15 min, 60° C.): 0.38% | % aglycone ([2]; Example 36: 30 min, 60° C.): 0.07% | % dimer content ([2]; Example 36: 30 min, 60° C.): 0.18% | % aglycone ([2]; Example 36: 45 min, 60° C.): 0.09% | % dimer content ([2]; Example 36: 45 min, 60° C.): 0.11% | % aglycone ([2]; Example 36: 60 min, 60° C.): 0.11% | % dimer content ([2]; Example 36: 60 min, 60° C.): 0.08% | % aglycone ([2]; Example 36: T = 0, 60° C.): 0.04% | % dimer content ([2]; Example 36: T = 0, 60° C.): 0.74% | dimer content [2, 10]: < 0,10% | epirubicin aglycone [2, 10]: about 0,10% | % aglycone [2, 11]: 0.11% | % dimer content [2, 11]: 0.08% | % aglycone [2, 12]: 0.04% | % dimer content [2, 12]: 0.80% | % aglycone ([2]; Example 37: 10 min, 60° C.): 0.05% | % dimer content ([2]; Example 37: 10 min, 60° C.): 0.38% | % aglycone ([2]; Example 37: 20 min, 60° C.): 0.07% | % dimer content ([2]; Example 37: 20 min, 60° C.): 0.18% | % aglycone ([2]; Example 37: 30 min, 60° C.): 0.09% | % dimer content ([2]; Example 37: 30 min, 60° C.): 0.11% | % aglycone ([2]; Example 37: 40 min, 60° C.): 0.10% | % dimer content ([2]; Example 37: 40 min, 60° C.): 0.08% | % aglycone [2, 13]: 0.10% | % dimer content [2, 13]: 0.08% | % aglycone ([2]; Example 37: T = 0, 60° C.): 0.05% | % dimer content ([2]; Example 37: T = 0, 60° C.): 0.76% | dimer content [2, 14]: < 0,10% | epirubicin aglycone [2, 14]: about 0,09% | dimer contained [2, 15]: 0.8% | epirubicin aglycone contained [2, 15]: 0.04% | aglycone contained in lyophilized product [3, 16]: 0.12% | dimer contained in lyophilized product [3, 16]: 0.1% | aglycone contained in lyophilized product [3, 17]: 0.10% | dimer contained in lyophilized product [3, 17]: 0.10%
Structure (SMILES): COc1cccc2c1C(=O)c1c(O)c3c(c(O)c1C2=O)C[C@@](O)(C(=O)CO)C[C@@H]3O[C@H]1CC(N)[C@@H](O)C(C)O1.Cl (stereo in doubt) [Epirubicin HCl, epirubicin hydrochloride]
pKa in water [4]: 7.7 | pH in a 0.5% w/v solution in water [5]: 4-5.5

aglycone contained in lyophilized product ([3]; Example 40: pH 3.5 with acetic acid, 60° C. for 2 hours, ammonium acetate 1.5% molar, frozen and lyophilized): 0.12% | aglycone contained in lyophilized product ([3]; Example 43: pH 4.6-4.8, AMBERLITE IRA-67 acetate 1.5% molar, filtered, frozen and lyophilized): 0.10% | % aglycone ([6]; 0.05 M formic acid, after addition of NH4OAc (4% molar), pH 2.71, 0.5 hr - 20° C.): 0.13% | % aglycone ([6]; 0.05 M formic acid, after addition of NH4OAc (4% molar), pH 2.71, 1.0 hr - 20° C.): 0.11% | % aglycone ([6]; 0.05 M formic acid, after addition of NH4OAc (4% molar), pH 2.71, 1.5 hr - 20° C.): 0.12% | % aglycone ([6]; 0.05 M formic acid, after addition of NH4OAc (4% molar), pH 2.71, 2.0 hr - 20° C.): 0.10% | % aglycone ([6]; 0.05 M formic acid, after addition of NH4OAc (4% molar), pH 2.71, 4.0 hr - 20° C.): 0.14% | % aglycone in doxorubicin HCl ([6]; 0.1 N acetic acid, after addition of NH4OAc (4% molar), pH 3.02, 0.5 hr - 20° C.): 0.20% | % aglycone in doxorubicin HCl ([6]; 0.1 N acetic acid, after addition of NH4OAc (4% molar), pH 3.02, 1.0 hr - 20° C.): 0.13% | % aglycone in doxorubicin HCl ([6]; 0.1 N acetic acid, after addition of NH4OAc (4% molar), pH 3.02, 1.5 hr - 20° C.): 0.12% | % aglycone in doxorubicin HCl ([6]; 0.1 N acetic acid, after addition of NH4OAc (4% molar), pH 3.02, 2.0 hr - 20° C.): 0.35% | % aglycone in doxorubicin HCl ([6]; 0.1 N acetic acid, after addition of NH4OAc (4% molar), pH 3.02, 3.0 hr - 20° C.): 0.12% | % aglycone in doxorubicin HCl ([6]; 0.1 N acetic acid, after addition of NH4OAc (4% molar), pH 3.02, 6.0 hr - 20° C.): 0.16% | % aglycone ([6]; 500 mg in 0.001 N hydrochloric acid (20 ml), pH 3.25, 20° C., 1.0 hr): 0.24% | % aglycone ([6]; 500 mg in 0.001 N hydrochloric acid (20 ml), pH 3.25, 20° C., 3.0 hr): 0.21% | % aglycone ([6]; 500 mg in 0.001 N hydrochloric acid (20 ml), pH 3.25, 20° C., 5.0 hr): 0.26% | % aglycone ([6]; 500 mg in 0.001 N hydrochloric acid (20 ml), pH 3.25, 20° C., 22.0 hr): 0.25% | % aglycone ([6]; 500 mg in 0.05 M formic acid (20 ml), 1.0 hr - 20° C., pH 2.52, before addition of NH4OAc): 0.20% | % aglycone in doxorubicin HCl ([6]; 500 mg in 0.1 N acetic acid (20 ml), 1.0 hr - 20° C., pH 2.62, before addition of NH4OAc): 0.17% | % aglycone ([7]; lyophilized product obtained (IRA-67 acetate treatment)): 0.09% | % aglycone ([7]; solution after treatment with 1.5% mol of IRA-67 acetate, slurried 2 hr, filtered, loaded into lyophilizer): 0.07% | % aglycone ([7]; starting solid doxorubicin hydrochloride, 2.5% w/v in water, after correcting pH (4.75), before resin treatment): 0.07% | % aglycone ([8]; 500 mg in water (10 ml), pH lowered from 5.4 to 3.5 with hydrochloric acid, 1 hr, 60° C.): 0.11% | % aglycone ([8]; 500 mg in water (10 ml), pH lowered from 5.4 to 3.5 with hydrochloric acid, 2 hr, 60° C.): 0.31% | % aglycone ([8]; pH 3.5 solution after two hours at 60° C., cooled, 1 hr, 20° C.): 0.21% | % aglycone ([8]; pH 3.5 solution after two hours at 60° C., cooled, 3 hr, 20° C.): 0.22%
Structure (SMILES): COc1cccc2c1C(=O)c1c(O)c3c(c(O)c1C2=O)C[C@@](O)(C(=O)CO)C[C@@H]3O[C@H]1C[C@@H](N)[C@H](O)C(C)O1.Cl (stereo partly shown) [Doxorubicin HCl, Doxorubicin hydrochloride]
